Data on 3 compounds can be found in US20250186503A1, “METHODS AND COMBINATIONS FOR TREATMENT AND T CELL MODULATION” (Juno Therapeutics, Inc., priority 2018, published 2025).

The structures appear in SMILES notation.

Experiment [1] has as its system K562.CD19, Raji cells or Granta-519 cells. As to the kind of experiment: Cytolytic activity against CD19+ tumor cells after concurrent Compound 2 during chronic stimulation. The experiment is classed as cell-based, human. The conditions noted are these: 0.001 μM or 0.01 μM concurrent; E:T 1:1. From the text:
The assessed CD19+tumor cells included K562 cells transduced with CD19 (K562.CD19), Raji cells or Granta-519 cells.

Experiment [2] concerns Granta-519 tumor spheroids. As to the kind of experiment: Granta-519 spheroid tumor growth assay, rescue treatment after chronic stimulation. The experiment is classed as cell-based, human. Here is the method:
Long-term, chronic stimulation was carried out by stimulation of CAR T cells with 30 μg/mL plate-bound anti-idiotypic (anti-ID) antibody for 6 days, substantially as described in Example 22.
Cells were assessed at various time points for cytolytic function and cytokine function. […] Averaged measurement of tumor spheroid size at Day 9 following co-culture with CAR-T cells was assessed. […] The log 2 fold change compared to control cells (chronically stimulated cells that had not been treated with immunomodulatory compound) is shown in FIG. 49C.

Experiment [3] deals with T1, Ikaros (Homo sapiens, UniProt Q13422+Q96SW2).
T1 construct: intracellular levels of Ikaros in CD4+ CAR+ or CD8+ CAR+ cells; endogenous in cells; host or cells: primary human CD4+ and CD8+ T cells transduced with an anti-CD19 CAR (FMC63 scFv)
T1 sequence (Q13422 whole entry): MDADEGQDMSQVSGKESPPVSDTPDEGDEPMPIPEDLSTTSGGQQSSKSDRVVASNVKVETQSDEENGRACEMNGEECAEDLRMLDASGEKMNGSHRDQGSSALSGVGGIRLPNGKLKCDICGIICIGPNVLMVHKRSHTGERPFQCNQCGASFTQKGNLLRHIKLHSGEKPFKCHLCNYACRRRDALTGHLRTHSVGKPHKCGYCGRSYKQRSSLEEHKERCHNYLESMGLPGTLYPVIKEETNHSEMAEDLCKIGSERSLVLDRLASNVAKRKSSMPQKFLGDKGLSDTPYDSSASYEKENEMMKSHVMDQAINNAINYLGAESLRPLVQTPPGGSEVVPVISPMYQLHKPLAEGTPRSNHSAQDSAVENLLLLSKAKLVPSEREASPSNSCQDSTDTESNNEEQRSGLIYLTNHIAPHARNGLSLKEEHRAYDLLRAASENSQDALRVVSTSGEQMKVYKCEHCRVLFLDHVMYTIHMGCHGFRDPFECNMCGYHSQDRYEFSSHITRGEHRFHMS
T1 sequence (Q96SW2 whole entry): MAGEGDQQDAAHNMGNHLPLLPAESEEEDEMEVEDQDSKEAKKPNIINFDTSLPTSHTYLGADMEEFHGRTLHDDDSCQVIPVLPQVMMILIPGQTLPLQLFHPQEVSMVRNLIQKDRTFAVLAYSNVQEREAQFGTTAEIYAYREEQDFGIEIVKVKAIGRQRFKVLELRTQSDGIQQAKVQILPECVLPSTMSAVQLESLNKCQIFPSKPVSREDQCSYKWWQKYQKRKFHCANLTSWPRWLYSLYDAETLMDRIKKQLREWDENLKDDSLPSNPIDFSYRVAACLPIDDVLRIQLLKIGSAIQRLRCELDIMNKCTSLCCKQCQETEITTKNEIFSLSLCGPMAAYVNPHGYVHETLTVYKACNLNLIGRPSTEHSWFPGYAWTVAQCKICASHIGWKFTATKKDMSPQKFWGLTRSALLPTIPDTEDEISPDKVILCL
T1 sequence (Q16531 whole entry partner): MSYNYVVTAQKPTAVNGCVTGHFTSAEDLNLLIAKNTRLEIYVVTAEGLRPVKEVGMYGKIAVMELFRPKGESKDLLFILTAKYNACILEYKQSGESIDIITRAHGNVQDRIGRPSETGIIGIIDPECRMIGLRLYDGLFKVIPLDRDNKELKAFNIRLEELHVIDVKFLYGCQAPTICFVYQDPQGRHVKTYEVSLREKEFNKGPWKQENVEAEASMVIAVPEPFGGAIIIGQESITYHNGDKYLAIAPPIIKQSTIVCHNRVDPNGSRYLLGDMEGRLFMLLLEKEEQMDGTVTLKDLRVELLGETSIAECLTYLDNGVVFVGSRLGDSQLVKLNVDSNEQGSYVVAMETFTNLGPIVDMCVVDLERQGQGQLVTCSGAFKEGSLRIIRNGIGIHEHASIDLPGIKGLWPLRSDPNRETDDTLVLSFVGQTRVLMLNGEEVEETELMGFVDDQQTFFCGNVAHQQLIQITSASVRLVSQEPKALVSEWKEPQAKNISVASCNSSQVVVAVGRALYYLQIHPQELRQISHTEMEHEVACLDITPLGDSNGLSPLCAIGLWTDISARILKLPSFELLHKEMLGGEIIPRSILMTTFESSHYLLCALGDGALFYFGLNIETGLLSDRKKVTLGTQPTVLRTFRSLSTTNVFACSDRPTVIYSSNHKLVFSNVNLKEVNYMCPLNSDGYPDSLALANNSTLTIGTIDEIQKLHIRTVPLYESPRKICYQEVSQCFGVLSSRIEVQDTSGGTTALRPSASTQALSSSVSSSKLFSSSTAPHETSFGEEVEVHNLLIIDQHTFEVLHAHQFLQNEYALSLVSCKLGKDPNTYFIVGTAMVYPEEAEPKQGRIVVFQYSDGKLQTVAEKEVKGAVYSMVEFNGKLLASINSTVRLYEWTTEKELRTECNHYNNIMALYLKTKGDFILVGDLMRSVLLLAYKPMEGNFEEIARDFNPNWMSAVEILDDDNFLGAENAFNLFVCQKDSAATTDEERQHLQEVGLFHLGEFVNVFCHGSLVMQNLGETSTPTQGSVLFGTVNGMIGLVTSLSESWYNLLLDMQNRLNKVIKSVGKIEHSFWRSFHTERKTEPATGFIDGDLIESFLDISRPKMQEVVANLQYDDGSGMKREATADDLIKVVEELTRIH
As to the kind of experiment: Intracellular Ikaros expression in CAR-expressing T cells. It counts as cell-based. From the text:
FIGS. 31A-31C show flow cytometry analysis of intracellular Ikaros or Aiolos expression on both CD4+ anti-CD19 CAR-expressing T cells and CD8+ anti-CD19 CAR-expressing T cells. […] Median fluorescence intensity (MFI) values for Ikaros and Aiolos were normalized and calculated as a percentage relative to […] vehicle control.

In experiment [4] the test system is Raji lymphoma tumor cells. As to the kind of experiment: Raji-ffluc tumor xenograft model, CAR-expressing T cells in combination with Compound 1. It counts as in vivo, NSG mice. Here is the method: The anti-tumor efficacy of CAR-expressing T cells in combination with 3-(5-amino-2-methyl-4-oxo-4H-quinazolin-3-yl)-piperidine-2,6-dione (Compound 1) was assessed by monitoring tumors in a tumor xenograft model. Anti-CD19 CAR-expressing T cell compositions, containing CD4+ and CD8+ T cells combined at a 1:1 ratio, were generated substantially as described in Example 14. T cell compositions were generated from three different donors.
NOD.Cg.Prkdc^scidIL2rg^tmlWjl/SzJ (NSG) mice were injected intravenously (i.v.) with 0.5×10^6 Raji lymphoma tumor cells (an immortalized human B lymphocyte tumor cell line that expresses CD19) that were transfected with firefly luciferase (Raji-ffluc). Tumor engraftment was allowed to occur for 6 days and verified using bioluminescence imaging. On Day 7, mice either received no treatment, or a single intravenous (i.v.) injection of anti-CD19 CAR-expressing cells at a low dose (0.5×10^6 cells) or a high dose (1.0×10^6 cells). […] Tumor burden was assessed by bioluminescence every 10 days. For bioluminescence imaging, mice received intraperitoneal (i.p.) injections of luciferin substrate (CaliperLife Sciences, Hopkinton, MA) resuspended in PBS (15 μg/g body weight). The average radiance (p/s/cm^2/sr) was determined. Survival of mice treated as described above were assessed and compared until day 100 post-infusion of CAR-expressing T cells.

Experiment [5] has as its system A549 CD19+ tumor spheroids. As to the kind of experiment: Rescue of chronically stimulated anti-CD19 CAR T cells rechallenged with A549 CD19+ tumor spheroids. The experiment is classed as cell-based, human. The method, then: Anti-CD19 CAR-expressing T cell compositions (containing CD4+ and CD8+ T cells combined at a 1:1 ratio) were generated from three different healthy donors substantially as described in Example 14. To subject cells to chronic stimulation conditions, the CAR+ T cells were incubated with plate-bound anti-idiotypic (anti-ID) antibody (see e.g. WO2018/023100), and incubated at 37° C. for a period of 6 days. […] The A549 CD19+tumor spheroids were labeled with a dye to permit monitoring of tumor cell lysis by microscopy during the assay. Freshly thawed anti-CD19 CAR-expressing T cells that had not been subjected to the chronic stimulatory conditions were incubated with the spheroids in parallel as controls. Cells were assessed at various times for cytolytic function, CAR T cell number and cytokine production.

The subject of experiment [6] is RPMI-8226. As to the kind of experiment: 3D myeloma model (reconstructed bone marrow embedded with RPMI-8226). It counts as cell-based, human. The conditions noted are these: 1.0 μM. The text has this:
To assess cell function in the context of a three-dimensional (3-D) human BCMA-expressing tissue microenvironment, a reconstructed bone marrow (rBone™) (z[…], San Jose, CA) was embedded with BCMA-expressing RPMI-8226.
After 2 or 7 days, cells were isolated and assessed by flow cytometry for surface expression of CD3, CD25, CD4, and CD8.

Experiment [7] has as its system OPM-2. As to the kind of experiment: OPM-2 human multiple myeloma orthotopic mouse model, Study 1. It counts as in vivo. The method, then:
Mice (NOD.Cg-Prkd^scidIL-2rg^tm1Wjl/SzJ mice (NSG; Jackson Labs)) were injected intravenously (i.v.) with 2×10^6 OPM2 (multiple myeloma) cells transfected with firefly luciferase (OPM2-ffluc). Tumor engraftment was allowed to occur for 13 days prior to staging (14 days before CAR-T cell administration) and verified using bioluminescence imaging.
In groups receiving CAR+ T cells, anti-BCMA CAR (generated by transducing cells derived from samples of human donor subjects essentially as described above) were administered at day 0 (day 14 after tumor cell injection), at a dose of either 5×10^5 (low) or 1×10^6 (high) CAR-expressing T cells. Table E1 summarizes the dosing regimens.
Tumor burden in animals among the various groups was monitored by bioluminescence imaging up to day 39 post-CAR+ T cell dosing. For bioluminescence imaging, mice received intraperitoneal (i.p.) injections of luciferin substrate (CaliperLife Sciences, Hopkinton, MA) resuspended in PBS (15 μg/g body weight). The total flux (photon/s) was determined at each time point.
Table E2 lists median survival (ms) (as assessed at day 56 post-CAR+ T cell administration) and number of mice in group surviving until day 56-post-CAR+ T cell administration, for each animal group assessed in this study.

`O=C1CC[C@H](N2Cc3c(OCc4ccc(CN5CCOCC5)cc4)cccc3C2=O)C(=O)N1` [Compound 2, (S)-3-[4-(4-morpholin-4-ylmethyl-benzyloxy)-1-oxo-1,3-dihydro-isoindol-2-yl]-piperidine-2,6-dione]: the “cytolytic activity (tumor cell number over time)” value in experiment [1] is listed as “improved”. In addition, in experiment [2] (0.001 μM or 0.01 μM rescue, Day 9), the Granta-519 spheroid growth result was “improved CAR T cell cytolytic”. For the same compound, in experiment [2] (5 days co-culture, rescue treatment), the IFNγ in supernatant result is recorded as “statistically significant increase”. Also, the “improvement in cytolytic function compared with Compound 1” value in experiment [2] (rescue treatment) was “greater following rescue treatment with Compound 2 than Compound 1”.

One may read the EC50 as the concentration that produces a half-maximal response. In the case of `Cc1nc2cccc(N)c2c(=O)n1C1CCC(=O)NC1=O` (stereo not shown) [Compound 1, 3-(5-amino-2-methyl-4-oxo-4H-quinazolin-3-yl)-piperidine-2,6-dione], in experiment [3], the “Ikaros expression in CAR-expressing T cells” value was “decreased in a concentration dependent manner” and the “magnitude of Ikaros loss compared with lenalidomide” value was “greater”. In addition, in experiment [4] (0.3 mg/kg i.p. once a day, Concurrent and Delayed groups), the “tumor burden compared to CAR-expressing cells alone” value is reported as “reduce tumor burden”. The “percent survival compared to anti-CD19 CAR-T cells only” value in experiment [4] (delayed or concurrent, low and high CAR-T dose) is given as “greater percent survival”. For the same compound, the EC50 in experiment [5] (Homo sapiens, chronically stimulated CAR-T cells, A549 CD19+ spheroids, read-out: EC50 for effect on tumor volume reduction) worked out at 0.127 µM. In experiment [5] (day 5, 1 μM, fresh and chronically stimulated CAR-T cells), the “numbers of CAR-T cells” value is listed as “increase expansion and/or survival of CAR-T cells”. For the same compound, in experiment [5] (day 5, long-term stimulated CAR-expressing T cells), the “cytokine production (IFN-γ, IL-2, TNF-α)” value is reported as “increased relative to co-cultures containing vehicle control”. The “antigen-specific cytokine production and tumor reduction by chronically stimulated CAR-T cells” value in experiment [5] (rescue treatment) was “restore antigen-specific cytokine production and tumor reduction”.

Take `Nc1cccc2c1CN(C1CCC(=O)NC1=O)C2=O` (stereo not shown) [lenalidomide, 3-(4-amino-1-oxo-1,3-dihydro-2H-isoindol-2-yl)piperidine-2,6-dione]: in experiment [6], the “CD25+ expression in CD4+ and CD8+ T cell populations” value is listed as “increase”. The “total number of CD3+ cells at day 7” value in experiment [6] (cultures with anti-BCMA CAR+ T cells) is on record as “increase”. Moreover, the “tumor growth or tumor burden, lenalidomide alone” value in experiment [7] (10 mg/kg i.p. daily, no CAR-T cells) is “not observed to reduce tumor growth or tumor burden”. Further, the “# animals surviving day 56 post-CART” value in experiment [7] (cell dose 1.00E+06 (hi) or 5.00E+05 (low), lenalidomide 10 mg/kg i.p. daily from day −1 (A) or day 14 (B)) is 0/8. Further, the “Median Survival (assessed at day 6)” value stood at 28 in experiment [7] (cell dose 1.00E+06 (hi) or 5.00E+05 (low), lenalidomide 10 mg/kg i.p. daily from day −1 (A) or day 14 (B), listed as lenalidomide (A)) and 25 in experiment [7] (cell dose 1.00E+06 (hi) or 5.00E+05 (low), lenalidomide 10 mg/kg i.p. daily from day −1 (A) or day 14 (B), listed as lenalidomide (B)). Moreover, in experiment [7] (high and low CAR doses, lenalidomide at day −1 (A) or delayed d.14 (B)), the “survival effects in mice treated with anti-BCMA CAR+ T cells” value is “improved survival effects”. Further, the “day post-CAR-T cell injection from which clear differences were observed” value in experiment [7] (higher (1×10^6) dose of CAR+ T cells, lenalidomide B) lay within 30 to 40 days. For the same compound, in experiment [7] (lenalidomide 10 mg/kg i.p. daily from day −1 (A), both CAR+ T cell doses), the “tumor growth and tumor burden in mice administered CAR+ T cells” value was “slower tumor growth and reduced tumor burden”. In addition, the “tumor growth and tumor burden in mice administered CAR-T cells” value in experiment [7] (lenalidomide from day 14 post-CAR+ T (B), both doses of CAR-T cells) was “trend towards slower tumor growth and reduced tumor burden”.
